Values of other authors as cited in patent US20070009923A1, “Use of bayesian networks for modeling cell signaling systems” (Massachusetts Institute of Technology, priority 2005, published 2007).

Tested on: PKC isozymes

For `Cn1c2ccccc2c2c3c(c4c5ccccc5n(CCC#N)c4c21)CNC3=O` [G06976], the IC50 is listed as under 8 nM.
